“And” between values parts separate entries of the source, which are not always exact repeats. Equal values may be shown once.
Legend:
non-genital warts [1] = assay: Example 1: randomized, double-blind, placebo control study of low dose DPCP gel for non-genital warts; format: in vivo, human
Procedure: Patients were initially sensitized with 0.4% DPCP gel at the primary wart site. Approximately 14 days later and weekly thereafter for various periods, a challenge dose is then applied. A challenge dose of 0.04% DPCP was employed. The DPCP used was incorporated in a unique blend of surfactants, a viscosity agent, and a preservative.
A single center, randomized, double-blind, placebo control study using low dose DPCP in a non-volatile vehicle for the treatment of non-genital warts was conducted. Patients were assigned to a treatment or placebo group in a 2:1 fashion. The two study gels were identical in appearance. The treatment group was sensitized with 0.1 ml of 0.4% DPCP gel which was applied to the inner arm and washed off in 24 hours. Fourteen days after the sensitization dose, 0.1 ml of 0.04% DPCP gel was applied to each wart, up to a total of 4 warts, for 7 consecutive weeks (Day 14, 21, 28, 35, 42, 49, 56). A final follow-up examination was performed on day 70. Patients were assessed at baseline and during each of 7 week treatment visits and on day 70 follow up.
Efficacy was based on Lesion Surface Area. The size of each qualifying verruca wart was determined at each visit by measuring the longest dimension (long axis) and the corresponding widest dimension (90 to the long axis).
Immunotherapeutic responses were characterized by grading the erythema, edema, induration, and scaling on a four-point scale: 0 (none) to 4 severe at each visit.
(§1) Efficacy endpoints were determined based on the percent of patients achieving complete and partial eradication as measured by IGAS and reductions in warts lesion surface area. Subjects were assessed for the extent of their immunotherapeutic response to treatment based upon the degree of erythema, edema, induration and scaling. Safety was evaluated at each visit by recording and grading adverse events and ease of ambulation 4 point grading system was used.
Adults 18-75 years of age in general good health with at least one non-genital cutaneous wart 5-20 mm in size were eligible for participation in the study. […] Pregnant or nursing women were excluded. Patients with unstable medical condition or history of immunosuppression were excluded. Use of systemic steroids, immunosuppressants, immunomodulators or cimetidine was not allowed for 4 weeks prior to enrollment. Any prior wart therapy was not allowed for 4 weeks. […] Patients could not be actively enrolled in another clinical trial within the previous 30 days.

non-genital warts [2] = assay: Example 2: randomized, double-blind, placebo control study, 0.04% DPCP gel twice a week for non-genital warts; format: in vivo, human; design: key to Clearance Score: 3 points=Complete clearance; 2 points=partial clearance: >50% reduction in the area of all treated wart; 1 point=partial eradication: <50% reduction in the area of all treated warts; 0 points=treatment failure: complete or partial eradication not achieved; conditions: for Clearance Score: per wart of one subject
Procedure: Institutional review board approval was obtained for this study, which was performed using Good Clinical Practice Guidelines and was compliant with the Code of Federal Regulation of the US Food and Drug Administration. A single center, 24 subject, randomized, double-blind, placebo control study using low dose DPCP in a non-volatile vehicle for the treatment of non-genital warts of established.
Patients are assigned to a treatment or placebo group in a 2:1 fashion. The two study gels are identical in appearance. Both groups are sensitized with 0.1 ml of 0.4% DPCP gel which is applied to the inner arm and washed off in 24 hours. Fourteen days after the sensitization dose, 0.1 ml of 0.04% DPCP gel or placebo is applied to each wart, up to a total of 4 warts, […] for 7 consecutive weeks (Day 14, 21, 28, 35, 42, 49, 56, […]). A final follow-up examination is performed on day 77. Patients are assessed at baseline and during office visits on days 14, 28, and 63 and on the day 77 follow up visit.
Efficacy is based on Lesion Surface Area. The size of each qualifying verruca wart is determined at each visit by measuring the longest dimension (long axis) and the corresponding widest dimension (90 to the long axis).
Investigator's Global Assessment Score (IGAS) is calculated based upon the following 4 point scale: 3 points=Complete clearance; 2 points=partial clearance: >50% reduction in the area of all treated wart; 1 point=partial eradication: <50% reduction in the area of all treated warts; 0 points=treatment failure: complete or partial eradication not achieved.
Immunotherapeutic responses are characterized by grading the erythema, edema, induration, and scaling on a four-point scale: 0 (none) to 4 severe at each visit.
as §1, with “are” for “were”, “is” for “was”
All subjects (both treated and placebo groups) are sensitized with the initial sensitizing dose of 0.4% DPCP gel applied directly to one target wart and to the inner aspect of the right arm and then covered with an occlusive adhesive bandage pad for 24 hours.
The Investigator can determine if sensitization occurred at either of the application sites. If on day 14, the first “treatment visit”, no visible evidence of skin sensitization is observed then the subject can be dropped from the study. If on day 14 the investigator determines that sensitization has occurred, than the first treatment dose using the challenge dose (0.04% DPCP gel or placebo) randomly assigned upon enrollment can be administered by the investigator to all target warts and then covered with an occlusive adhesive bandage pad for 24 hours.
The patient is provided with a tube containing the appropriate challenge product (0.04% DPCP gel or placebo) with detailed instructions on how to apply the product two times per week and the proper handling and storage of the product between applications.
Two times per week the patient can apply the treatment dose (0.04% DPCP gel or placebo) to all target warts and then cover with an occlusive adhesive bandage pad for 24 hours.
The Investigator can apply the treatment dose (0.04% DPCP gel or placebo) to all target warts and then cover with an occlusive adhesive bandage pad for 24 hours.
The Investigator can apply the treatment dose (0.04% DPCP gel or placebo) to all target warts and then cover with an occlusive adhesive bandage pad for 24 hours. […] This is the final treatment. The patient is instructed to stop at home treatments and should return any unused gel. […]

[3] = general statement, no test described; cited from earlier work
[4] = 0.4% sensitizing dose, 0.04% challenge dose weekly
[5] = 0.4% sensitizing dose, 0.04% challenge dose twice a week

O=c1c(-c2ccccc2)c1-c1ccccc1 [DPCP, diphenylcyclopropenone]
side effects reported (non-genital warts [1]; [4]): No significant side effects were reported other than skin rash at the sensitization site | tolerability reported by patients (non-genital warts [1]; [4]): highly tolerable | subjects who obtained a clinical response/improvement (non-genital warts [1]; DPCP group, 8 subjects, 0.4% sensitizing dose, then 0.04% gel weekly for 7 weeks): 100% | warts with complete clearance (non-genital warts [1]; DPCP group, 11 of 25 warts, vs 1 of 15 vehicle treated warts, p=0.01): 44% | warts with partial to complete clearance (non-genital warts [1]; DPCP group, 19/25 warts, 0.4% sensitizing dose, then 0.04% gel weekly for 7 weeks): 76% | severe reactions at the application site (non-genital warts [1]; challenge dose of 0.04% DPCP after 0.4% sensitizing dose): did not result in observable severe reactions at the application site | surrounding untreated warts completely cleared (non-genital warts [1]; one subject with numerous mosaic warts on the plantar foot, the 4 treated warts also completely cleared): > 50 | sensitization (non-genital warts [2]; 0.4% DPCP sensitization dose given to both treatment and placebo group, 7 subjects): all were successfully sensitized | side effects reported (non-genital warts [2]; [5]): No significant side effects were reported other than skin rash at the sensitization site | tolerability reported by patients (non-genital warts [2]; [5]): highly tolerable | treated warts that achieved greater than 50% clearance (non-genital warts [2]; DPCP group, 1 of 6 warts): 16% | treated warts that exhibited no clearance (non-genital warts [2]; DPCP group, 1 of 6 warts): 16% | treated warts with complete clearance (non-genital warts [2]; DPCP group, 4/6 warts, 0.04% gel twice a week): 67% | subjects who obtained a clinical response/improvement (non-genital warts [2]; DPCP group, 4 of 5 subjects, 0.04% gel twice a week for 7 weeks): 80% | Clearance Score (non-genital warts [2]; at 5 weeks, 0.04% gel twice a week): 5 weeks + 3 | Clearance Score (non-genital warts [2]; at 7 weeks, 0.04% gel twice a week, listed as DPC): 7 weeks 0 and 7 weeks + 3 (3×) and 7 weeks + 2 (2 points=partial clearance: >50% reduction in the area of all treated wart) | mutagenicity, teratogenicity and organ toxicity [3]: not mutagenic, teratogenic and has no organ toxicity

Source: patent US10300027B2, “Effective sensitizing dose of a gelled immunomodulating topical composition” (Phio Pharmaceuticals Corp., priority 2010, dated 2019)
